The target of the assay is PrP (Mus musculus, UniProt P04925). It counts as cell-based.
Chain of PrP (P04925 23-230 limits assumed): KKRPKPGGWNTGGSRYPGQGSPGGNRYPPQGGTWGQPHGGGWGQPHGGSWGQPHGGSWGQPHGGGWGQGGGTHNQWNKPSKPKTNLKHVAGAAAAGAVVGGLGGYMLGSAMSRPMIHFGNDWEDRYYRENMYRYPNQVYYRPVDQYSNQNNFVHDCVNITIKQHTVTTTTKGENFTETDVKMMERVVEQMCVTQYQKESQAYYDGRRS

Regarding Tunicamycin, the PrP glycoform pattern result was “accumulate the non-glycosilated specie of PrP”.

The values above are taken from patent US20110311533A1 (priority 2010, published 2011).
